# “Also recorded” adds a separate entry of the source. Where a name gives a salt, the structure may show the parent alone. Read-outs that look alike come from different tables or passages of the source.
# Legend:
# [1] = Stability in strong light irradiation experiment (4,500 lx±500 lx); format: physicochemical; conditions: for Stability in the strong light irradiation environment: hydrochloride
# Source text: Demethyleneberberine hydrochloride crystals A, B, C and D are taken in an appropriate amount and placed in plates numbered as A3, B3, C3 and D3 respectively, and then the plates are placed in a strong light irradiation environment at 4,500 lx±500 lx respectively for stability test.
# [2] = Determination of blood concentration in rats after ig administration; format: in vivo; conditions: ig 200 mg/kg, plasma; for AUC: calculated from the experimental results
# Description: Male SD rats are adaptively bred for 3 days, and rats having (220±20) g body weight are selected and divided into 5 groups, namely, blank group, demethyleneberberine hydrochloride crystal form A group, demethyleneberberine hydrochloride crystal form B group, demethyleneberberine hydrochloride crystal form C group and demethyleneberberine hydrochloride crystal form D group. Food supply is stopped for 12 h for gastric emptying before the experiment. For the rats in the experimental groups, ig (intragastric) administration dosage is 200 mg/kg. 0.2 ml of blood is taken from the orbits of the rats at 5 min., 15 min., 30 min., 1 h, 2 h, 6 h and 12 h respectively after ig administration, the whole blood is centrifuged, and 100 μl of plasma is taken and frozen at −20° C. for use later. 100 μl of plasma sample is taken, 200 μl of methanol is added into the plasma sample, the mixture is vortexed for 5 min., and then centrifuged at 10,000 r/min. for 15 min. in a centrifuge; the supernatant is taken and tested by HPLC. […] Through calculation on the basis of the experimental results, it is determined: DAUC=3.675 μg×ml^−1×h>AAUC=1.247 μg×ml^−1×h>BAUC=1.150 μg×ml^−1×h>CAUC=1.077 μg×ml^−1×h.
# [3] = Solubility in ethanol system at different temperatures, HPLC; format: physicochemical; conditions: FIG. 15, hydrochloride
# Description: Demethyleneberberine hydrochloride crystals A, B, C and D are taken in an appropriate amount and the solubility of demethyleneberberine hydrochloride crystals A, B, C and D at different temperatures in an ethanol system is studied respectively. 20 μl of sample is taken at each temperature node and detected by HPLC.
# [4] = Solubility in water system at different temperatures, HPLC; format: physicochemical; conditions: hydrochloride; for Solubility comparison of the four crystal forms (summary): summary over water, methanol and ethanol systems; for Solubility ranking among the four crystal forms: water system, different temperatures, FIG. 13
# Description: Demethyleneberberine hydrochloride crystals A, B, C and D are taken in an appropriate amount and the solubility of demethyleneberberine hydrochloride crystals A, B, C and D at different temperatures in a water system is studied respectively. 20 μl of sample is taken at each temperature node and detected by HPLC.
# [5] = Stability in high-temperature experiment (60±2° C.); format: physicochemical; conditions: for X-Ray Powder Diffraction / Content (%) / Content of Relevant Substance (%) / Stability in the high-temperature environment: 60±2° C.; for Stability in the high-temperature environment / Stability under stability test conditions (summary): hydrochloride; for Stability under stability test conditions (summary): summary over high temperature, high humidity and strong light irradiation
# Description: Demethyleneberberine hydrochloride crystals A, B, C and D are taken in an appropriate amount and placed in plates numbered as A1, B1, C1 and D1 respectively, and then the plates are placed in a high-temperature environment at 60±2° C. respectively for stability test.
# [6] = Stability in high-humidity experiment (RH90±5%); format: physicochemical
# Source text: Demethyleneberberine hydrochloride crystals A, B, C and D are taken in an appropriate amount and placed in plates numbered as A2, B2, C2 and D2 respectively, and then the plates are placed in a high-humidity environment at RH90±5% respectively for stability test.
# [7] = Solubility in methanol system at different temperatures, HPLC; format: physicochemical; conditions: FIG. 14, hydrochloride
# Description: Demethyleneberberine hydrochloride crystals A, B, C and D are taken in an appropriate amount and the solubility of demethyleneberberine hydrochloride crystals A, B, C and D at different temperatures in a methanol system is studied respectively. 20 μl of sample is taken at each temperature node and detected by HPLC.
# [8] = day 0, listed as A3, hydrochloride
# [9] = day 5, listed as A3, hydrochloride
# [10] = day 10, listed as A3, hydrochloride
# [11] = day 0, listed as A1, hydrochloride
# [12] = day 5, listed as A1, hydrochloride
# [13] = day 10, listed as A1, hydrochloride
# [14] = day 0, listed as A2, hydrochloride
# [15] = day 5, listed as A2, hydrochloride
# [16] = day 10, listed as A2, hydrochloride
# [17] = day 0, listed as B3, hydrochloride
# [18] = day 5, listed as B3, hydrochloride
# [19] = day 10, listed as B3, hydrochloride
# [20] = day 0, listed as B1, hydrochloride
# [21] = day 5, listed as B1, hydrochloride
# [22] = day 10, listed as B1, hydrochloride
# [23] = day 0, listed as B2, hydrochloride
# [24] = day 5, listed as B2, hydrochloride
# [25] = day 10, listed as B2, hydrochloride
# [26] = day 0, listed as C3, hydrochloride
# [27] = day 5, listed as C3, hydrochloride
# [28] = day 10, listed as C3, hydrochloride
# [29] = day 0, listed as C1, hydrochloride
# [30] = day 5, listed as C1, hydrochloride
# [31] = day 10, listed as C1, hydrochloride
# [32] = day 0, listed as C2, hydrochloride
# [33] = day 5, listed as C2, hydrochloride
# [34] = day 10, listed as C2, hydrochloride
structure (smiles),measurement,setting,value
"COc1ccc2cc3[n+](cc2c1OC)CCc1cc(O)c(O)cc1-3 [crystal form A, demethyleneberberine hydrochloride]",X-Ray Powder Diffraction,[1]; day 0,Unchanged
same,Content (%),[1]; [8],99.62%
same,Content of Relevant Substance (%),[1]; [8],0.38%
same,X-Ray Powder Diffraction,[1]; day 5,Unchanged
same,Content (%),[1]; [9],99.61%
same,Content of Relevant Substance (%),[1]; [9],0.39%
same,Content (%),[1]; [10],99.60%
same,Content of Relevant Substance (%),[1]; [10],0.40%
same,X-Ray Powder Diffraction,[1]; [10],Unchanged
same,Stability in the strong light irradiation environment,[1],relatively stable
same,AUC,"[2]; male SD rats, hydrochloride",1247 ng·h/mL
same,Cmax,"[2]; male SD rats, hydrochloride",292 ng/mL
same,Solubility ranking among the four crystal forms,[3],>solubility of crystal form D of demethyleneberberine hydrochloride
same,Solubility comparison of the four crystal forms (summary),[4],>solubility of crystal form D of demethyleneberberine hydrochloride
same,Solubility ranking among the four crystal forms,[4],>solubility of crystal form D of demethyleneberberine hydrochloride
same,X-Ray Powder Diffraction,[5]; day 0,Unchanged
same,Content (%),[5]; [11],99.62%
same,Content of Relevant Substance (%),[5]; [11],0.38%
same,X-Ray Powder Diffraction,[5]; day 5,Unchanged
same,Content (%),[5]; [12],99.63%
same,Content of Relevant Substance (%),[5]; [12],0.37%
same,Content (%),[5]; [13],99.61%
same,Content of Relevant Substance (%),[5]; [13],0.39%
same,X-Ray Powder Diffraction,[5]; [13],Unchanged
same,Stability in the high-temperature environment,[5],relatively stable
same,Stability under stability test conditions (summary),[5],stable
same,Stability in the high-humidity environment,[6],relatively stable
same,X-Ray Powder Diffraction,[6]; day 0,Unchanged
same,Content (%),[6]; [14],99.62%
same,Content of Relevant Substance (%),[6]; [14],0.38%
same,X-Ray Powder Diffraction,[6]; day 5,Unchanged
same,Content (%),[6]; [15],99.58%
same,Content of Relevant Substance (%),[6]; [15],0.42%
same,X-Ray Powder Diffraction,[6]; day 10,Unchanged
same,Content (%),[6]; [16],99.60%
same,Content of Relevant Substance (%),[6]; [16],0.40%
same,Solubility ranking among the four crystal forms,[7],>solubility of crystal form D of demethyleneberberine hydrochloride
"COc1ccc2cc3[n+](cc2c1OC)CCc1cc(O)c(O)cc1-3 [crystal form B, demethyleneberberine hydrochloride]",X-Ray Powder Diffraction,[1]; day 0,Unchanged
same,Content (%),[1]; [17],99.58%
same,Content of Relevant Substance (%),[1]; [17],0.42%
same,X-Ray Powder Diffraction,[1]; day 5,Unchanged
same,Content (%),[1]; [18],99.77%
same,Content of Relevant Substance (%),[1]; [18],0.23%
same,Content (%),[1]; [19],99.67%
same,Content of Relevant Substance (%),[1]; [19],0.33%
same,X-Ray Powder Diffraction,[1]; [19],Unchanged
same,Stability in the strong light irradiation environment,[1],relatively stable
same,AUC,"[2]; male SD rats, hydrochloride",1150 ng·h/mL
same,Cmax,"[2]; male SD rats, hydrochloride",642 ng/mL
same,tmax,"[2]; male, SD, rat, po, 200 mg/kg, read-out: tmax",1 h
same,Solubility ranking among the four crystal forms,[3],>solubility of crystal form A of demethyleneberberine hydrochloride
same,Solubility comparison of the four crystal forms (summary),[4],>solubility of crystal form A of demethyleneberberine hydrochloride
same,Solubility ranking among the four crystal forms,[4],>solubility of crystal form A of demethyleneberberine hydrochloride
same,X-Ray Powder Diffraction,[5]; day 0,Unchanged
same,Content (%),[5]; [20],99.82%
same,Content of Relevant Substance (%),[5]; [20],0.18%
same,X-Ray Powder Diffraction,[5]; day 5,Unchanged
same,Content (%),[5]; [21],99.62%
same,Content of Relevant Substance (%),[5]; [21],0.38%
same,Content (%),[5]; [22],99.67%
same,Content of Relevant Substance (%),[5]; [22],0.33%
same,X-Ray Powder Diffraction,[5]; [22],Unchanged
same,Stability in the high-temperature environment,[5],relatively stable
same,Stability under stability test conditions (summary),[5],stable
same,Stability in the high-humidity environment,[6],relatively stable
same,X-Ray Powder Diffraction,[6]; day 0,Unchanged
same,Content (%),[6]; [23],99.58%
same,Content of Relevant Substance (%),[6]; [23],0.42%
same,X-Ray Powder Diffraction,[6]; day 5,Unchanged
same,Content (%),[6]; [24],99.60%
same,Content of Relevant Substance (%),[6]; [24],0.40%
same,X-Ray Powder Diffraction,[6]; day 10,Unchanged
same,Content (%),[6]; [25],99.56%
same,Content of Relevant Substance (%),[6]; [25],0.44%
same,Solubility ranking among the four crystal forms,[7],>solubility of crystal form A of demethyleneberberine hydrochloride
"COc1ccc2cc3[n+](cc2c1OC)CCc1cc(O)c(O)cc1-3 [crystal form C, demethyleneberberine hydrochloride]",X-Ray Powder Diffraction,[1]; day 0,Unchanged
same,Content (%),[1]; [26],99.57%
same,Content of Relevant Substance (%),[1]; [26],0.43%
same,X-Ray Powder Diffraction,[1]; day 5,Unchanged
same,Content (%),[1]; [27],99.49%
same,Content of Relevant Substance (%),[1]; [27],0.51%
same,Content (%),[1]; [28],99.55%
same,Content of Relevant Substance (%),[1]; [28],0.45%
same,X-Ray Powder Diffraction,[1]; [28],Unchanged
same,Stability in the strong light irradiation environment,[1],relatively stable
same,AUC,"[2]; male SD rats, hydrochloride",1077 ng·h/mL
same,Cmax,"[2]; male SD rats, hydrochloride",1262 ng/mL
same,tmax,"[2]; male SD rats, hydrochloride",0.5 h
same,Solubility ranking among the four crystal forms,[3],>solubility of crystal form B of demethyleneberberine hydrochloride
same,Solubility comparison of the four crystal forms (summary),[4],highest; also recorded: >solubility of crystal form B of demethyleneberberine hydrochloride
same,Solubility ranking among the four crystal forms,[4],>solubility of crystal form B of demethyleneberberine hydrochloride
same,X-Ray Powder Diffraction,[5]; day 0,Unchanged
same,Content (%),[5]; [29],99.18%
same,Content of Relevant Substance (%),[5]; [29],0.82%
same,X-Ray Powder Diffraction,[5]; day 5,Unchanged
same,Content (%),[5]; [30],99.21%
same,Content of Relevant Substance (%),[5]; [30],0.79%
same,Content (%),[5]; [31],99.19%
same,Content of Relevant Substance (%),[5]; [31],0.81%
same,X-Ray Powder Diffraction,[5]; [31],Unchanged
same,Stability in the high-temperature environment,[5],relatively stable
same,Stability under stability test conditions (summary),[5],stable
same,Stability in the high-humidity environment,[6],relatively stable
same,X-Ray Powder Diffraction,[6]; day 0,Unchanged
same,Content (%),[6]; [32],99.77%
same,Content of Relevant Substance (%),[6]; [32],0.23%
same,X-Ray Powder Diffraction,[6]; day 5,Unchanged
same,Content (%),[6]; [33],99.72%
same,Content of Relevant Substance (%),[6]; [33],0.28%
same,X-Ray Powder Diffraction,[6]; day 10,Unchanged
same,Content (%),[6]; [34],99.57%
same,Content of Relevant Substance (%),[6]; [34],0.43%
same,Solubility ranking among the four crystal forms,[7],>solubility of crystal form B of demethyleneberberine hydrochloride

# From patent US11242340B2, “Crystal forms of demethyleneberberine hydrochloride and preparation method therefor” (priority 2018, dated 2022)
